Reference: article PMC10674565 (Pharmaceuticals, 2023)

How the values were obtained:
[1] = Cytotoxicity (MTT) assay, HEK293 cells; type: cell-based; settings: human, 1–500 µM, read-out: viability compared to the control
Method: (§1) Caco-2 and HEK93 cells were incubated in a 96-well microplate (10^4 cells per well) with different concentrations (1, 10, 50, 100, and 500 µM) of EMHPS for 24 h. At the end of incubation, 20 μL of 0.5% 3-(4,5-dimethylthiazol-2-yl)-2,5-diphenyltetrazolium bromide (MTT) was added to each well, followed by a 2 h incubation. The MTT solution was then aspirated and 200 μL of […] dimethyl sulfoxide solution (PanEko) was added. Absorption was recorded after 10 min at 530 nm with a Stat Fax 2100 plate reader (Awareness Technology, Palm City, FL, USA). The survival of cells in the presence of EMHPS was calculated according to the equation: (optical density (OD) of test wells − OD of medium)/(OD of control wells − OD of medium) × 100%, where OD is the optical density.

SLCO1B1 = assay: Effect on expression of SLCO1B1 in HepG2 cells (Western blot); type: cell-based, human; settings: 1, 10, and 100 µM, 24 h incubation
Method: The HepG2 cell line was purchased from American Type Culture Collection (Institute of Cytology, Russian Academy of Sciences, Moscow, Russia). Cells were cultured in Dulbecco’s modified Eagle’s medium containing 15% fetal bovine serum, 2 mM l-glutamine, 100 units/mL penicillin G, and 100 μg/mL streptomycin in an atmosphere of 5% CO2 at 37 °C on a 24-well plate until a monolayer was formed. HepG2 cells were used to test the effect of EMHPS on the expression of SLCO1B1.
(§2) To test the effect of EMHPS on the expression of ABCB1 and SLCO1B1, Caco-2 or HepG2 cells, respectively, were cultured on a 6-well plate. EMHPS was used at concentrations of 1, 10, and 100 µM, and the duration of exposure was 24 h. After the incubation, the cells were removed from the surface of the wells with a trypsin–EDTA solution (0.25% trypsin and 0.2% EDTA, Sigma-Aldrich, St. Louis, MO, USA).
(§3) The expression levels of ABCB1 and SLCO1B1 were analyzed via Western blot.
(§4) Cells were lysed with NP40 Cell Lysis Buffer Thermo (Thermo Fisher Scientific) with protease inhibitors (Sigma Aldrich, St. Louis, MO, USA) for 30 min at +4 °C with constant stirring at a rate of 10^7 cells per 100 µL of buffer. Protein concentrations were quantified with the Pierce Coomassie Plus Assay Kit (Thermo Fisher, Rockford, IL, USA). […]

ABCB1 [2] = assay: Effect on expression of ABCB1 in Caco-2 cells (Western blot); type: cell-based, human; settings: 1, 10, and 100 µM, 24 h incubation
Method: as §2, §3, §4
The protein content was measured relative to the level of housekeeping protein GAPDH (primary antibodies: GAPDH Loading Control Monoclonal Antibody (GA1R) and […] (Invitrogen); secondary antibodies: secondary rabbit antibodies to primary GAPDH antibodies—Rabbit-anti-Mouse IgG (H + L) Secondary Antibody and HRP (Invitrogen). Chemiluminescence was recorded using ChemiDocXRS+ (Bio-Rad). The intensity of the obtained bands was analyzed densitometrically using ImageLab 6.0.0 software (Bio-Rad).

[3] = test system: hemispheric ischemic stroke; set-up: method as in doi:10.1007/s11055-018-0652-y; settings: 151 patients with hemispheric ischemic stroke; cited from earlier work
ABCB1 [4] = molecular target: ABCB1 (Homo sapiens, UniProt P08183); assay: Effect on ABCB1-mediated transport of fexofenadine through the Caco-2 cells monolayer
Method: Transport experiments were carried out in Transwell® systems (12 mm Transwell® with 0.4 µm Pore Polycarbonate Membrane Insert, Sterile, «Corning»). The Transwell® system consists of two chambers, apical and basolateral. […] The medium was changed every 2–3 days. The apical and basolateral chambers represent the luminal and blood/mesenteric lymph sides of the gastrointestinal tract, respectively.
The transepithelial electrical resistance (TEER) across the cell monolayers was monitored using a Millicell-ERS (electrical resistance system) to assess cell monolayer integrity. For transport studies, only monolayers with a TEER > 500 Ω cm^2 were used.
To study the roles of different parts of the EMHPS molecule for its action on ABCB1, experiments with succinic acid were also carried out.
Prior to the transport experiments, the culture media was aspirated, and the monolayers were washed twice with transport medium and preincubated with EMHPS, succinic acid, or verapamil for 30 min.
The data are presented as the mean ± SD from three monolayers.
The resulting sample of the transport medium (50 μL) was diluted in 150 μL of the mobile phase, and 100 μL of the resulting solution was injected into the chromatograph. A Phenomenex Synergi 4u Polar-RP 80A (250 × 4.6) chromatographic column was used for analysis. The separation temperature was 35 °C; the flow rate was 1 mL/min. Composition of the mobile phase: acetonitrile (128 mL), deionized water (267.4 mL), acetic acid (6.33 mL), triethylamine to pH = 6.7. […] Detection was carried out at a wavelength of 220 nm.
Half maximal inhibitory concentration (IC50) values were determined through nonlinear regression based on the three-parameter logistic function.

[5] = Cytotoxicity (MTT) assay, Caco-2 cells; type: cell-based; settings: human, 1–500 µM, read-out: viability compared to the control
Method: as §1

[6] = human, Caco-2 cell monolayer on Transwell inserts, probe fexofenadine 150 µmol/L

Sequence of ABCB1 (Homo sapiens, UniProt P08183) (P08183 whole entry): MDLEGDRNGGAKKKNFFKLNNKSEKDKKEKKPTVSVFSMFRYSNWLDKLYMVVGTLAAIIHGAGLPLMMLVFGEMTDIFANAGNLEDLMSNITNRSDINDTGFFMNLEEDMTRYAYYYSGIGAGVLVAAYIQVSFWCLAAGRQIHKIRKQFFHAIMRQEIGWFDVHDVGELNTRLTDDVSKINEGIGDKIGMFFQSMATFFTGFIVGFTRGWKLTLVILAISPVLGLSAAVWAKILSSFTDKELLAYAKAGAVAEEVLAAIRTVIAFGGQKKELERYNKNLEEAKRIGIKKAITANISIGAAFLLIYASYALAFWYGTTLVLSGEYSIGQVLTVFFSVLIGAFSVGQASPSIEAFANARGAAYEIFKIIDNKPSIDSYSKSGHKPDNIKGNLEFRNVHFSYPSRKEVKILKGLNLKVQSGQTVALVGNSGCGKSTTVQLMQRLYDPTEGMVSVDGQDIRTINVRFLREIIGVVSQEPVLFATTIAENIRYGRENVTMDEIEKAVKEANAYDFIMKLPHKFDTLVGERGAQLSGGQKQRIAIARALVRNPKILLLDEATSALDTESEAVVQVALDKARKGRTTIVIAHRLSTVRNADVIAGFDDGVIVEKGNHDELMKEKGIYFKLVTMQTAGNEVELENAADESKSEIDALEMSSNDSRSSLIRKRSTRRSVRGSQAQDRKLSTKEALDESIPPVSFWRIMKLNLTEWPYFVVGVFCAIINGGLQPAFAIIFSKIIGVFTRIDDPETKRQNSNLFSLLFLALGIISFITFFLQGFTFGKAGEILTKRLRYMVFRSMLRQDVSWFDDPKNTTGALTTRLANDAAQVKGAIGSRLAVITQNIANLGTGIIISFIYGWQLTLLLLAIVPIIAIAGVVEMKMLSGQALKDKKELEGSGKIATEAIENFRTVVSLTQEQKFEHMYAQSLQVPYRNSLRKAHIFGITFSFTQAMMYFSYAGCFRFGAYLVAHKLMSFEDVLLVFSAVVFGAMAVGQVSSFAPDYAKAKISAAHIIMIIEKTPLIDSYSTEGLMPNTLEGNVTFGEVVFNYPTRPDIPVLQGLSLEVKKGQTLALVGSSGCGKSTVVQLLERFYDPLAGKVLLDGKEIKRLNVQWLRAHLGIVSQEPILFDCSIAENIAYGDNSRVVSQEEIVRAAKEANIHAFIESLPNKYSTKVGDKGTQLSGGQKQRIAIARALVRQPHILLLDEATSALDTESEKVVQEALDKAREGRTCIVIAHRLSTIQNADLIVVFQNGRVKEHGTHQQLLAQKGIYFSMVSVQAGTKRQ

In the case of `CCc1nc(C)ccc1O.O=C(O)CCC(=O)O` [EMHPS, 2-Ethyl-6-methyl-3-hydroxypyridine succinate], the viability at 24 h [1] is reported as 85 to 105%, the “effect on expression of SLCO1B1” value (SLCO1B1) is reported as “did not significantly affect” and the “effect on expression of ABCB1” value (ABCB1 [2]) is reported as “did not significantly affect”. The “neurological status compared with the placebo” value [3] was “improved the neurological status”, the IC50 (ABCB1 [4]) was 92 ± 24.3 µM and the “decrease of basal-to-apical fexofenadine transport” value (ABCB1 [4]; 200 µM, vs control, Caco-2 monolayer) was 52.5%. For the same molecule, the inhibition at 50 µM (ABCB1 [4]; [6]) was 50.2%, the inhibition at 100 µM (ABCB1 [4]; [6]) was 72.9% and the inhibition at 200 µM (ABCB1 [4]; [6]) was 90.6%. For the same molecule, the viability at 24 h [5] was 85 to 105%.
